Data taken from patent US20160374979A1, “Method of Treatment of Alopecia with Monoterpenoids” (CELLMID LIMITED, priority 2013, published 2016).

Tests used:
[1] = test system: murine vibrissae follicles; experiment: Hair shaft elongation of murine vibrissae follicles cultured ex vivo; set-up: species or system C3H mice; details: piperitone 0.1 mg/mL in culture medium
Source text: Five week old male C3H mice (supplied by Japan SLC, lnc., Hamamatsu, Japan) were used for isolation of vibrissae follicles. The mice were sacrificed and the vibrissae follicles were carefully dissected from the mystacial pad. Briefly, the mystacial pad was cut into two sides (left and right). The skin cut, picked at the edge by tweezers, was washed in (i) 70% Ethanol for 30 seconds, (ii) PBS for 10 seconds, (iii) fresh PBS for 10 seconds, and (iv) another fresh PBS for 10 seconds. This washing process was repeated twice. After washing, the skin cut was placed inverted to expose the vibrissae follicles in Dulbecco's Modified Eagle's Medium (DMEM; Wako Pure Chemical, Osaka, Japan) at 37° C. Under a dissecting microscope, the surrounding tissue was removed from the follicles using tweezers, carefully so as not to destroy the structure of the follicles. The isolated follicles were then placed immediately into Williams' E medium (Life Technologies, Carlsbad, USA).
From the isolated mouse vibrissae follicles, only early anagen follicles were selected and randomized into groups with 30 follicles per group. […]
Follicles in each of the treatment and control groups were incubated at 37° C. at 5% CO2 for 8 days, while exchanging the respective culture mediums every 2 days. From Day 1, elongation of hair shafts was observed and the elongation length was measured for each hair shaft every 24 hours from Day 1 to Day 8 using a micrometer under microscope. […]
Follicles in each of the treatment and control groups were incubated at 37° C. at 5% CO2 for 5 days, while exchanging the culture medium every 3 days. From Day 1, elongation of hair shafts was observed and the elongation length was measured for each hair shaft every 24 hours from Day 1 to Day 5. using a micrometer under microscope. […]

[2] = test system: FGF-5-dependent cell proliferation (FR-BaF3 cells expressing FGFR-1c); experiment: FR-Ba/F3 cell proliferation/viability assay in the presence of FGF-5 (CCK-8); format: cell-based, murine
Protocol: Ba/F3 is a murine interleukin-3 (IL-3)-dependent pro-B cell line. […] That is, compounds were tested for their ability to modulate proliferation of FR-Ba/F3 cells in the presence of recombinant human FGF-5 (rhFGF-5) prepared according to Maeda et al., Nishi Nihon Hifuka, 69(1): 81-86, 2007.
Briefly, a suitable plasmid expressing FGFR-1c was introduced into […] ER-Ba/F3 cells, and the cells were maintained in RPMI RPMI-1640 with 10% FBS and 1.3×10^−17 M of murine IL-3 (Sigma, St Louis, […].) containing antibiotic G418 sulfate (Promega, Medison, Wis.). The inventors compared proliferation of FR/BaF3 cells in culture medium containing IL3 or FGF-5 and a different concentration in the range from 0.005% (w/v) to 1.0% (w/v) of each test compound listed in Example 1. The FR-BaF3 cells were seeded at 5×10^4/mL cells per well in 96-well, micro-culture plates (Falcon) in RPMI-1640 culture medium containing 10% fetal bovine serum, 5 μg/mL heparin. Recombinant human FGF-5 (rhFGF-5; 1 μg/mL) was added to one group, and IL-3 (0.2 ng/mL) (Sigma) was added to another group. The test compounds were then introduced to the micro-culture plate wells. Total volume of media per well was 100 μl. Control groups lacking test compound were also prepared for each of the IL-3-supplemented and FGF-5-supplemented samples. The plates were then incubated at 37° C. in 5% CO2 for 3 days.
After 3 days, colorimetric assays were performed using a Cell Counting Kit-8 (CCK-8) (Wako) according to the manufacturer's instructions to measure cell proliferation or suppression thereof by the test compound at varying concentrations. Briefly, 10 μl (1:2 dilution) of the CCK-8 reagent was added to each micro-culture plate well after which time the plates were incubated at […] for 3 hours. Absorbance at 450 nm was then measured using a microplate reader. Cell viability and proliferation for the IL-3-supplemented and FGF-5-supplemented groups was calculated as a measure of the optical density (OD) of cells treated with a test compound relative to the OD of the respective untreated controls, excluding the OD of blank controls (media only). Dose response curves were plotted and the respective inhibitory concentrations (IC50) for the test compounds were determined.

CC1=CC(=O)C(C(C)C)CC1 (stereo not shown) [Piperitone, 3-Methyl-6-(propan-2-yl)cyclohex-2-en-1-one]
hair shaft elongation over time ([1]; 5 days (FIG. 22)): continued steadily and consistently throughout the culture period | hair growth ([1]; versus control): increased hair growth | FGF-5-inhibitory activity (in words) ([2]; judged from FR-BaF3 result): potent FGF-5-inhibitory active substances | FGF-5 Specificity IL-1/FGF-5 ([2]; ratio of the IC50 with IL-3 to the IC50 with FGF-5, BR: less reproducible): 25
